The source of these data is US20160120932A1, “TRANSPLANT SITE-FORMING AGENT, TRANSPLANT SITE-FORMING DEVICE, ANGIOGENIC AGENT AND ANGIOGENIC DEVICE” (Kyoto University, priority 2014, published 2016).

In assay [1] the test system is diabetic ACI rats. The assay can be described thus: Glucose tolerance test of recipients after transplantation of pancreatic islets. Format: in vivo, rat. The conditions noted are these: glucose intraperitoneally (60 mg/kg). From the text: (§1) Pancreatic islets were separated from a F344 rat as a donor, and were transplanted to the diabetic ACI rats as prepared above as recipients. Specifically, the agarose rods containing SEK-1005 as prepared in the same process as described above were implanted on the right side and on the left side of the backbone of the diabetic rats, respectively, and were removed 10 days after the implantation. Thereafter, 1500 pancreatic islets separated from the […] rat were transplanted to each of the spaces formed by removing the agarose rods, respectively (3000 pancreatic islets in total).
In the test, changes in the blood glucose level after intraperitoneally administering glucose (60 mg/kg) were examined.
Further, glucose was administered in the same manner as the above to the recipients at 100 to 105 days after the transplantation of pancreatic islets, and the changes in the blood glucose level were examined. As a result, a trend that a degree of decrease in blood glucose level was less than the recipients at 50 to 55 days after the transplantation of the pancreatic islets was observed. […] On the other hand, the diabetic rats maintained a blood glucose level of as high as approximately 500 mg/dL. The error bars in FIG. 7 each indicate standard deviations (normal; n=4, diabetic; n=3, 40 days after transplantation; n=4, 90 days after transplantation; n=4).

The test system of assay [2] is diabetic ACI rats. The assay can be described thus: Blood glucose level of recipients after transplanting pancreatic islets to the site from which the agarose rod was removed. The conditions noted are these: SEK-1005 rods removed after 10 days, 3000 pancreatic islets from F344 rat transplanted; casual blood glucose level. Format: in vivo. On the procedure: (§2) Diabetic rats were prepared by intraperionerally administering streptozocin (STZ) to ACI rats (8-week old, male). The blood glucose level of the rats were measured, and it was determined that diabetes was induced when the blood glucose level exceeded 400 mg/dL for 2 days in succession. A substrate formed of 4.5% agarose gel having a rod shape of 25 mm in length and 4 mm in diameter was impregnated with SEK-1005 (100 μg) dissolved in alcohol. After sufficiently evaporating alcohol, the agarose rod was impregnated with physiological saline. The agarose rods were implanted under the skin of the diabetic rats at two portions, on the right side and on the left side of the backbone, respectively. As a control, agarose rods that were impregnated with physiological saline without SEK-1005 were implanted under the skin of a diabetic rat, on the right side and on the left side of the backbone, respectively.
Pancreatic islets were separated from a F344 rat as a donor, and were transplanted to the diabetic ACI rats as prepared above as recipients. Specifically, the agarose rods containing SEK-1005 as prepared in the same process as described above were implanted on the right side and on the left side of the backbone of the diabetic rats, respectively, and were removed 10 days after the implantation. […]

The test system of assay [3] is diabetic ACI rats. The assay can be described thus: HE-stained and immunofluorescent-stained tissue slice of the transplant site. Format: in vivo, rat. The conditions noted are these: 106 days after transplantation.
Excerpt: as §1
The upper images in FIG. 8 are photographs of a HE-stained tissue slice prepared from a site at which the pancreatic islets were transplanted, obtained from a recipient with a normalized blood glucose level at 106 days after the transplantation of the pancreatic islets.
The lower image in FIG. 8 is an immunofluorescent-stained image of a tissue slice obtained at the substantially same site to the HE-stained tissue slice.

Assay [4] has as its system subcutaneous tissue of diabetic ACI rats. The assay can be described thus: Amount of hemoglobin in subcutaneous tissue at contact portion with the agarose rod. The conditions noted are these: agarose rod containing 10 μg or 100 μg of SEK-1005, implanted for 10 days. Format: in vivo, rat. On the procedure:
as §2
The data shown in FIG. 3 are the measurement results of the amount of hemoglobin of a diabetic ACI rat to which an agarose rod was not implanted, a diabetic rat implanted with an agarose rod not containing SEK-1005, a diabetic rat implanted with an agarose rod containing 10 μg of SEK-1005, and a diabetic rat implanted with an agarose rod containing 100 μg of SEK-1005. The measurement was conducted after removing the agarose rod that had been implanted for 10 days. […]

Assay [5] deals with white blood cells or bone-marrow cells. The conditions noted are these: JP-A H10-259134; cited from earlier work.
Assay [6] deals with subcutaneous tissue of diabetic ACI rats. The assay can be described thus: Evaluation of effect of inducing angiogenesis: observation of tissue around agarose rod implanted under the skin (gross and HE-stained slice). Format: in vivo, rat. On the procedure:
as §2
Ten days after the implantation, the agarose rods were removed and the surrounding tissues were observed.

The test system of assay [7] is diabetic ACI rats. Description: Plasma insulin concentration of recipients after transplanting pancreatic islets. Format: in vivo, rat. The conditions noted are these: at 40 days and at 90 days after transplanting the pancreatic islets; casual measurements.
Excerpt: as §1
The error bars in FIG. 6 each indicate standard deviations (normal; n=4, diabetic; n=3, 40 days after transplantation; n=4, 90 days after transplantation; n=4). The values of the plasma insulin concentration are casual measurements.

For assay [8], the system named is diabetic rat. The conditions noted are these: device containing bFGF; cited from earlier work.

`CC(C)CC1CCC(O)(C(C)(O)C(=O)NC2C(=O)N3NCCCC3C(=O)N(O)C(C)C(=O)N(C)C(Cc3ccccc3)C(=O)N3NCCCC3C(=O)NC(CO)C(=O)OC2C(C)C)OC1C` (stereo not drawn) [SEK-1005, Ser,3-hydroxy-N-[2-hydroxy-1-oxo-2-tetrahydro-2-hydroxy-6-methyl-5-(2-methylpropyl)-2H-pyran-2-yl-propyl]-Leu-Pip(hexahydro-3-pyridazinecarbonyl)-N-hydroxy-Ala-N-methyl-Phe-Pip-rho-lactone]: the “changes in blood glucose level in glucose tolerance test (FIG. 7)” value in assay [1] (50 to 55 days after transplantation) is “controlled to a similar level to a normal rat”. Further, in assay [1] (100 to 105 days after transplantation), the “changes in blood glucose level in glucose tolerance test (FIG. 7)” value is “controlled to a degree similar to that of a normal rat”. The “blood glucose levels of recipients (FIG. 4)” value in assay [2] is given as “four in six recipients were normalized over 100 days”. Also, in assay [3], the “blood vessels in the cell clumps, HE-stained tissue slice of transplant site (FIG. 8)” value was “many blood vessels having a small diameter penetrated the cell clumps” and the “insulin-positive cells in immunofluorescent-stained tissue slice (FIG. 8)” value is given as “insulin-positive cells were observed”. The “pancreatic islet cell clumps in HE-stained tissue slice of transplant site (FIG. 8)” value in assay [3] (recipient with normalized blood glucose level) was “many cell clumps which were considered to be pancreatic islets existed”. For the same molecule, the “amount of hemoglobin in the subcutaneous tissue (FIG. 3)” value in assay [4] is listed as “increased”. Also, in assay [5], the “amount of granulation tissue” value is “increasing the amount of a granulation tissue”. Besides, in assay [6] (agarose rod containing SEK-1005 (100 μg) implanted under the skin for 10 days, compared to rod not containing SEK-1005), the “development of blood vessels having a small diameter at the surrounding tissue (FIG. 1)” value is recorded as “blood vessels having a small diameter were developed”. Moreover, the “development of blood vessels having a small diameter in HE-stained subcutaneous tissue slice (FIG. 2)” value in assay [6] (contact portion with agarose rod containing SEK-1005, compared with rod not containing SEK-1005) was “blood vessels having a small diameter were developed”. Also, in assay [7], the “plasma insulin concentration versus diabetic rat to which pancreatic islets were not transplanted (FIG. 6)” value is on record as “significantly higher” and the “plasma insulin concentration versus normal rat (FIG. 6)” value is “did not show a significant difference”.

For the molecule “bFGF: basic fibroblast growth factors, a substance for inducing angiogenesis”, in assay [8], the “blood glucose level after transplanting pancreatic islets at the site after removing the device” value is reported as “normalized during a long period of time” and the “generation of blood vessels at the site under the skin where the device was implanted” value is “generation of blood vessels having a small diameter was observed”.
